# Key:
# [1] = Chemical stability in pH 7.4 potassium phosphate buffer assessed as half life for compound hydrolysis at 37 degC by UPLC and mass spectrometry; type: physicochemical
# Escherichia coli [2] = test: microbe, parasite or virus in culture
# Description: Antimicrobial activity against Escherichia coli expressing beta-lactamase Oxa-160 by CLSI broth microdilution method
# Escherichia coli [3] = test: microbe, parasite or virus in culture; remark: listed apart in the source
# Description: Antimicrobial activity against Escherichia coli expressing beta-lactamase IMP-1 by CLSI broth microdilution method
# Escherichia coli [4] = test: microbe, parasite or virus in culture; remark: listed apart in the source
# Description: Antimicrobial activity against Escherichia coli expressing beta-lactamase VEB-7 by CLSI broth microdilution method
# Escherichia coli [5] = test: microbe, parasite or virus in culture; remark: listed apart in the source
# Description: Antimicrobial activity against Escherichia coli expressing beta-lactamase PER-4 by CLSI broth microdilution method
# Escherichia coli [6] = test: microbe, parasite or virus in culture; remark: listed apart in the source
# Description: Antimicrobial activity against Escherichia coli expressing beta-lactamase Oxa-10 by CLSI broth microdilution method
# Pseudomonas aeruginosa = test: Antimicrobial activity against Pseudomonas aeruginosa expressing nalB/delta-mexXY/delta-mexCDoprJ/delta-ampC by CLSI broth microdilution method; type: functional
# Escherichia coli [7] = test: microbe, parasite or virus in culture; remark: listed apart in the source
# Description: Antimicrobial activity against Escherichia coli expressing beta-lactamase SPM-1 by CLSI broth microdilution method
# Mus musculus = test: Toxicity in CD1 mouse assessed as induction of convulsion at 100 mg/kg, icv measured 1 hr after post dose; type: organism-based; settings: in vivo, icv_or_intrathecal
# Escherichia coli [8] = test: microbe, parasite or virus in culture; remark: listed apart in the source
# Description: Antimicrobial activity against Escherichia coli expressing beta-lactamase Oxa-181 by CLSI broth microdilution method
# Escherichia coli [9] = test: microbe, parasite or virus in culture; remark: listed apart in the source
# Description: Antimicrobial activity against Escherichia coli expressing beta-lactamase VIM-1 by CLSI broth microdilution method
# Escherichia coli [10] = test: microbe, parasite or virus in culture; remark: listed apart in the source
# Description: Antimicrobial activity against Escherichia coli expressing beta-lactamase CTXM-15 by CLSI broth microdilution method
# Escherichia coli [11] = test: microbe, parasite or virus in culture; remark: listed apart in the source
# Description: Antimicrobial activity against Escherichia coli expressing beta-lactamase KPC-3 by CLSI broth microdilution method
# Escherichia coli [12] = test: Antimicrobial activity against Escherichia coli expressing beta-lactamase NDM-1 by CLSI broth microdilution method; type: functional
# Escherichia coli [13] = test: Antimicrobial activity against Escherichia coli expressing beta-lactamase KPC-2 by CLSI broth microdilution method; type: functional
# Escherichia coli [14] = test: Antimicrobial activity against Escherichia coli expressing beta-lactamase VEB-1 by CLSI broth microdilution method; type: functional
# Escherichia coli [15] = test: microbe, parasite or virus in culture; remark: listed apart in the source
# Description: Antimicrobial activity against Escherichia coli expressing beta-lactamase Oxa-48 by CLSI broth microdilution method
# Escherichia coli [16] = test: microbe, parasite or virus in culture; remark: listed apart in the source
# Description: Antimicrobial activity against Escherichia coli expressing beta-lactamase TEM-10 by CLSI broth microdilution method
# Escherichia coli [17] = test: microbe, parasite or virus in culture; remark: listed apart in the source
# Description: Antimicrobial activity against Escherichia coli expressing beta-lactamase TEM-24 by CLSI broth microdilution method
# Escherichia coli [18] = test: microbe, parasite or virus in culture; remark: listed apart in the source
# Description: Antimicrobial activity against Escherichia coli expressing beta-lactamase SME-1 by CLSI broth microdilution method
# Escherichia coli [19] = test: Antimicrobial activity against Escherichia coli expressing beta-lactamase NDM-5 by CLSI broth microdilution method; type: functional
# Escherichia coli [20] = test: microbe, parasite or virus in culture; remark: listed apart in the source
# Description: Antimicrobial activity against Escherichia coli expressing beta-lactamase TEM-47 by CLSI broth microdilution method
# [21] = Half life in rat at 10 mg/kg, iv; type: ADME, organism-based; settings: in vivo
# [22] = Clearance in dog at 10 mg/kg, iv; type: ADME, organism-based, Canis lupus familiaris; settings: in vivo
# [23] = Drug excretion in rat assessed as unchanged parent drug level at 10 mg/kg, iv; type: ADME, organism-based; settings: in vivo, read-out: Drug excretion
# [24] = Stability assessed as assessed as Escherichia coli beta-lactamase KPC-2-mediated compound hydrolysis by measuring molar enthalpy of hydrolysis at 1 mM by isothermal titration calorimetry; type: ADME; settings: 1000 µM
# [25] = AUC in dog at 10 mg/kg, iv; type: ADME, organism-based, Canis lupus familiaris; settings: in vivo
# [26] = Clearance in mouse at 10 mg/kg, iv; type: ADME, organism-based; settings: in vivo
# [27] = Volume of distribution in mouse at 10 mg/kg, iv; type: ADME, organism-based; settings: in vivo
# [28] = Half life in dog at 10 mg/kg, iv; type: ADME, organism-based, Canis lupus familiaris; settings: in vivo
# Klebsiella pneumoniae [29] = test: Antimicrobial activity against Klebsiella pneumoniae expressing beta-lactamase NDM-1 by CLSI broth microdilution method; type: functional
# [30] = Drug excretion in dog assessed as unchanged parent drug level at 10 mg/kg, iv; type: ADME, organism-based, Canis lupus familiaris; settings: in vivo, read-out: Drug excretion
# in vitro [31] = settings: human, plasma
# Description: Protein binding in human plasma
# [32] = AUC in rat at 10 mg/kg, iv; type: ADME, organism-based; settings: in vivo
# in vitro [33] = settings: rat, plasma
# Description: Protein binding in rat plasma
# in vitro [34] = settings: dog, plasma
# Description: Protein binding in dog plasma
# Klebsiella pneumoniae [35] = test: Antimicrobial activity against Klebsiella pneumoniae expressing beta-lactamase NDM-1 infected in neutropenic mouse thigh infection model assessed as fT>MIC for causing 1 log10 CFU reduction in bacterial load dosed subcutaneously every 4 hrs; type: functional
# [36] = AUC in mouse at 10 mg/kg, iv; type: ADME, organism-based; settings: in vivo
# [37] = Half life in mouse at 10 mg/kg, iv; type: ADME, organism-based; settings: in vivo
# in vitro [38] = settings: mouse, plasma
# Description: Protein binding in mouse plasma
# [39] = Clearance in rat at 10 mg/kg, iv; type: ADME, organism-based; settings: in vivo
# [40] = Volume of distribution in dog at 10 mg/kg, iv; type: ADME, organism-based, Canis lupus familiaris; settings: in vivo
# Klebsiella pneumoniae [41] = test: Antimicrobial activity against Klebsiella pneumoniae expressing beta-lactamase NDM-1 infected in neutropenic mouse thigh infection model assessed as compound dose causing 1 log10 CFU reduction in bacterial load dosed subcutaneously every 4 hrs; type: functional
# [42] = Volume of distribution in rat at 10 mg/kg, iv; type: ADME, organism-based; settings: in vivo
compound,measurement,setting,value
NC[C@@H]1CN(C[C@@H]2[C@H](NC(=O)/C(=N\OC3(C(=O)O)CC3)c3csc(N)n3)C(=O)N2S(=O)(=O)O)C(=O)O1 (stereo in doubt),half-life,[1],157 h
same,MIC,Escherichia coli [2],0.25 µg/mL
same,MIC,Escherichia coli [3],0.06 µg/mL
same,MIC,Escherichia coli [4],32 µg/mL
same,MIC,Escherichia coli [5],> 32 µg/mL
same,MIC,Escherichia coli [6],0.125 µg/mL
same,MIC,Pseudomonas aeruginosa,> 64 µg/mL
same,MIC,Escherichia coli [7],0.06 µg/mL
same,Activity,Mus musculus,Toxic
same,MIC,Escherichia coli [8],0.25 µg/mL
same,MIC,Escherichia coli [9],0.06 µg/mL
same,MIC,Escherichia coli [10],0.125 µg/mL
same,MIC,Escherichia coli [11],0.125 µg/mL
same,MIC,Escherichia coli [12],0.125 µg/mL
same,MIC,Escherichia coli [13],0.125 µg/mL
same,MIC,Escherichia coli [14],32 µg/mL
same,MIC,Escherichia coli [15],0.06 µg/mL
same,MIC,Escherichia coli [16],1 µg/mL
same,MIC,Escherichia coli [17],0.125 µg/mL
same,MIC,Escherichia coli [18],0.06 µg/mL
same,MIC,Escherichia coli [19],0.25 µg/mL
same,MIC,Escherichia coli [20],≤ 0.06 µg/mL
N=C(N)NCc1cnn(C[C@@H]2[C@H](NC(=O)/C(=N\OC3(C(=O)O)CC3)c3csc(N)n3)C(=O)N2S(=O)(=O)O)n1 (stereo in doubt),half-life,[1],486 h
same,MIC,Escherichia coli [2],0.125 µg/mL
same,MIC,Escherichia coli [3],0.125 µg/mL
same,MIC,Escherichia coli [4],32 µg/mL
same,MIC,Escherichia coli [5],4 µg/mL
same,MIC,Escherichia coli [6],0.25 µg/mL
same,MIC,Pseudomonas aeruginosa,16 µg/mL
same,MIC,Escherichia coli [7],0.06 µg/mL
same,MIC,Escherichia coli [8],0.125 µg/mL
same,MIC,Escherichia coli [9],0.06 µg/mL
same,MIC,Escherichia coli [10],0.125 µg/mL
same,MIC,Escherichia coli [11],0.125 µg/mL
same,MIC,Escherichia coli [12],≤ 0.06 µg/mL
same,MIC,Escherichia coli [13],0.125 µg/mL
same,MIC,Escherichia coli [14],16 µg/mL
same,MIC,Escherichia coli [15],0.06 µg/mL
same,MIC,Escherichia coli [16],1 µg/mL
same,MIC,Escherichia coli [17],0.25 µg/mL
same,MIC,Escherichia coli [18],0.06 µg/mL
same,MIC,Escherichia coli [19],0.25 µg/mL
same,MIC,Escherichia coli [20],0.125 µg/mL
N=C(N)NCc1cn(C[C@@H]2[C@H](NC(=O)/C(=N\OC3(C(=O)O)CC3)c3csc(N)n3)C(=O)N2S(=O)(=O)O)nn1 (stereo in doubt),half-life,[1],89 h
same,MIC,Escherichia coli [2],0.25 µg/mL
same,MIC,Escherichia coli [3],0.125 µg/mL
same,MIC,Escherichia coli [4],32 µg/mL
same,MIC,Escherichia coli [5],8 µg/mL
same,MIC,Escherichia coli [6],0.25 µg/mL
same,MIC,Escherichia coli [7],0.125 µg/mL
same,MIC,Escherichia coli [8],0.25 µg/mL
same,MIC,Escherichia coli [9],0.125 µg/mL
same,MIC,Escherichia coli [10],0.125 µg/mL
same,MIC,Escherichia coli [11],0.125 µg/mL
same,MIC,Escherichia coli [12],0.125 µg/mL
same,MIC,Escherichia coli [13],0.125 µg/mL
same,MIC,Escherichia coli [14],16 µg/mL
same,MIC,Escherichia coli [15],0.125 µg/mL
same,MIC,Escherichia coli [16],0.5 µg/mL
same,MIC,Escherichia coli [17],0.25 µg/mL
same,MIC,Escherichia coli [18],0.06 µg/mL
same,MIC,Escherichia coli [19],0.25 µg/mL
same,MIC,Escherichia coli [20],0.25 µg/mL
Nc1nc(/C(=N/OC2(C(=O)O)CC2)C(=O)N[C@@H]2C(=O)N(S(=O)(=O)O)[C@@H]2CN2CCOC2=O)cs1 (stereo in doubt) [ANCREMONAM],half-life,[1],400 h
same,MIC,Escherichia coli [2],1 µg/mL
same,half-life,[21],0.6 h
same,clearance,[22],4 mL/min/kg
same,MIC,Escherichia coli [3],0.125 µg/mL
same,MIC,Escherichia coli [4],16 µg/mL
same,dose excreted,[23],30%
same,MIC,Escherichia coli [5],8 µg/mL
same,MIC,Escherichia coli [6],0.125 µg/mL
same,Stability,[24],Stable
same,MIC,Pseudomonas aeruginosa,≥ 64 µg/mL
same,MIC,Escherichia coli [7],0.125 µg/mL
same,Activity,Mus musculus,Non-Toxic
same,MIC,Escherichia coli [8],0.125 µg/mL
same,MIC,Escherichia coli [9],0.125 µg/mL
same,AUC,[25],13000 ng·h/mL
same,MIC,Escherichia coli [10],0.125 µg/mL
same,clearance,[26],16 mL/min/kg
same,Vd,[27],0.3 L/kg
same,half-life,[28],0.8 h
same,MIC,Klebsiella pneumoniae [29],1 µg/mL
same,MIC,Escherichia coli [11],0.25 µg/mL
same,MIC,Escherichia coli [12],0.125 µg/mL
same,dose excreted,[30],34%
same,fraction unbound,in vitro [31],0.87
same,MIC,Escherichia coli [13],0.125 µg/mL
same,MIC,Escherichia coli [14],32 µg/mL
same,AUC,[32],19000 ng·h/mL
same,MIC,Escherichia coli [15],0.125 µg/mL
same,fraction unbound,in vitro [33],0.53
same,fraction unbound,in vitro [34],0.76
same,MIC,Escherichia coli [16],1 µg/mL
same,fT>MIC,Klebsiella pneumoniae [35],65%
same,AUC,[36],10000 ng·h/mL
same,MIC,Escherichia coli [17],0.5 µg/mL
same,half-life,[37],0.3 h
same,fraction unbound,in vitro [38],0.74
same,MIC,Escherichia coli [18],0.125 µg/mL
same,clearance,[39],9 mL/min/kg
same,Vd,[40],0.2 L/kg
same,MIC,Escherichia coli [19],0.125 µg/mL
same,Activity,Klebsiella pneumoniae [41],1590 mg/kg/day
same,MIC,Escherichia coli [20],0.125 µg/mL
same,Vd,[42],0.3 L/kg

# Source: ChEMBL document CHEMBL4184210, “Optimization of novel monobactams with activity against carbapenem-resistant Enterobacteriaceae - Identification of LYS228” (Bioorg Med Chem Lett, 2018)
